Experimental data taken from patent publication US5565342A (priority 1989, dated 1996).

Key:
RON substance synthetase [1] = experiment: Substrate specificity of the enzyme; assay type: biochemical, Leuconostoc mesenteroides subsp. dextranicum, BL-75; conditions: as substrate of the enzyme
RON substance synthetase [2] = experiment: Inhibition and activation of the enzyme by metal chlorides; assay type: biochemical, Leuconostoc mesenteroides subsp. dextranicum, BL-75; conditions: 1 mM metal chloride; not added = 100; 30 min
Experimental: A substrate solution comprising sucrose (60 w/v %) and an acetate buffer (0.3M, pH 5.5), which was warmed to 30° C. in advance, was mixed with an enzyme solution (0.5 to 1 U/ml) warmed to 30° C. in an amount 4 times the amount of the substrate solution, and the mixture was sufficiently stirred and the reaction was carried out at 30° C. for 30 minutes. To the reaction mixture a 40 mM of NaOH solution was added in an amount 5 times of the amount of the reaction mixture to stop the reaction. The reaction-stopped mixture was appropriately diluted and reducing sugar was determined as fructose by the Somogyi method [M. Somogyi, J. Biol. Chem., 160, 61 (1945)]. As the control, reducing sugar in the enzyme reaction-stopped mixture treated in the same manner without adding sucrose was determined as fructose, and correction was carried out. The quantity of sucrose participating in the reaction was determined from the quantity of fructose.
The relative activities at the addition of the different metal chlorides in the final concentration of 1 mM were determined by the standard method. The relative value was expressed in percent comparing with the activity without addition of any metal chloride.

SMILES: O=C(CO)[C@@H](O)[C@H](O)[C@H](O)CO [fructose]
- Formation of the RON substance (substrate specificity) (RON substance synthetase [1]): not observed

SMILES: [Cl-].[Cl-].[Mg+2] [MgCl2]
- Relative Activity (RON substance synthetase [2]): 78%

SMILES: [Ca+2].[Cl-].[Cl-] [CaCl2]
- Relative Activity (RON substance synthetase [2]): 110%

SMILES: [Cl-].[Cl-].[Zn+2] [ZnCl2]
- Relative Activity (RON substance synthetase [2]): 93%

SMILES: [Cl][Cu][Cl] [CuCl2]
- Relative Activity (RON substance synthetase [2]): 50%

SMILES: OC[C@H]1O[C@H](OC[C@H]2OC(O)[C@H](O)[C@@H](O)[C@@H]2O)[C@H](O)[C@@H](O)[C@@H]1O (some centres unmarked) [isomaltose]
- Formation of the RON substance (substrate specificity) (RON substance synthetase [1]): not observed

SMILES: [Cl][Mn][Cl] [MnCl2]
- Relative Activity (RON substance synthetase [2]): 75%

SMILES: [Cl][Fe][Cl] [FeCl2]
- Relative Activity (RON substance synthetase [2]): 103%

SMILES: OC[C@H]1O[C@H](O[C@H]2[C@H](O)[C@@H](O)C(O)O[C@@H]2CO)[C@H](O)[C@@H](O)[C@@H]1O (mixture of isomers) [maltose]
- Formation of the RON substance (substrate specificity) (RON substance synthetase [1]): not observed

SMILES: [Cl][Fe]([Cl])[Cl] [FeCl3]
- Relative Activity (RON substance synthetase [2]): 82%

SMILES: OC[C@H]1OC(O)[C@H](O)[C@@H](O)[C@@H]1O (some centres unmarked) [glucose]
- Formation of the RON substance (substrate specificity) (RON substance synthetase [1]): not observed

SMILES: [Cl][Ni][Cl] [NiCl2]
- Relative Activity (RON substance synthetase [2]): 98%

SMILES: [Cl-].[Cl-].[Co+2] [CoCl2]
- Relative Activity (RON substance synthetase [2]): 95%

SMILES: OC[C@H]1O[C@@](CO)(O[C@H]2O[C@H](CO)[C@@H](O)[C@H](O)[C@H]2O)[C@@H](O)[C@@H]1O [sucrose]
- Formation of the RON substance (substrate specificity) (RON substance synthetase [1]): reacts only with sucrose
